Data from patent US20110172163A1, “Novel Protease Inhibitors” (QUEENSLAND UNIVERSITY OF TECHNOLOGY, priority 2008, published 2011).
“Also recorded” adds a separate entry of the source. Read-outs that look alike come from different tables or passages of the source. Bridge positions count the residues as written; N and C are the ends. Peptide text beside a SMILES is read from it.

Key:
[1] = test system: human PAR-2; assay: PAR-2 activating peptide stimulated calcium release in LMF stably expressing human PAR-2; type: cell-based
Protocol: (§1) Lung murine fibroblasts (LMF) from Par-1 null mice stably expressing human PAR-2 were grown to 80% confluence as previously described, washed with PBS, detached nonenzymatically, resuspended (4×10^6 cells/ml) in extracellular medium (121 mM NaCl, 5.4 mM KCl, 0.8 mM MgCl2, 1.8 mM CaCl2, 5.5 mM glucose, 25 mM HEPES (pH 7.4)) containing 0.2% (w/v) bovine serum albumin (Sigma) and then loaded with the fluorescence indicator Fura-2 acetoxymethyl ester (1.0 μM; Invitrogen) at room temperature for 60 min. Cells were then pelleted followed by resuspension in extracellular medium (without bovine serum albumin) at a concentration of 2×10^6 cells/ml for fluorescence measurements. The ratio of fluorescence at 510 nm after excitation at 340 and 380 nm was monitored (Polarstar Optima fluorescent plate reader) during treatment with bovine β trypsin (Sigma Chemicals), PAR-2 activating peptide SLIGKV (AusPep) and iKLK4 with or without SFTI-FCQR.

[2] = target: T1, iKLK14 (Homo sapiens, UniProt Q9P0G3); assay: Inhibitor kinetics: KLK14 amidolytic activity; type: biochemical
T1 construct: made in house

[3] = target: KLK4 (Homo sapiens, UniProt Q9Y5K2); assay: Protein proteolysis: fibrinogen digestion by KLK4 (SDS-PAGE); type: biochemical; parameters: pro-region of PSA (KLK3), replacing the native KLK4 pro-region (only if the E. coli preparation was used) (N, cleaved yes); made in house; details: 2.5 nM KLK4, SDS-PAGE
Protocol: Fibrinogen was solubilised in assay buffer to a final concentration of 1 mg/ml and digested with KLK4 (+/−inhibitor) over a period of 90 minutes at 37° C. Typically assays consisted of 5 μM protein substrate and 2.5 nM KLK4 protein or 1 nM trypsin made up to a final volume of 8 μl with assay buffer. Proteolysis was initiated by addition of KLK4 and terminated by addition of SDS PAGE sample buffer and heat denaturation at 100° C. for 5 minutes. Hydrolysis products were resolved on 10% SDS PAGE gels and compared with incubations terminated immediately after initiation (time 0), and substrate proteins incubated in assay buffer for 90 minutes in the absence of KLK4 or 4-16 mins with trypsin.

[4] = target: T2, bovine β-trypsin (Bos taurus, UniProt P00760); assay: Inhibitor kinetics: trypsin amidolytic activity; type: biochemical; details: trypsin; read-out: IC50
T2 construct: bovine β-trypsin (20 ng); purchased Sigma Chemicals
T2 sequence (P00760 24-246): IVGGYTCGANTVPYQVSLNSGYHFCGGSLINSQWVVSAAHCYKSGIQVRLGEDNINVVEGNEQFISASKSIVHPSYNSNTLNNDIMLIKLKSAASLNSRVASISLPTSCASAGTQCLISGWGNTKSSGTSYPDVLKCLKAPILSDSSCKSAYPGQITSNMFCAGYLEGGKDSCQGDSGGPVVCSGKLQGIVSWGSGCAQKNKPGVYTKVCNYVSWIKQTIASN
Protocol: (§2) All enzymes and substrates were obtained from Sigma Chemicals if not otherwise specified. […] The release of pNa moiety was monitored as described above for 7 minutes with each point being the average of three independent triplicate reactions. IC50 was determined using the Prism 5 software suite (GraphPad software Inc.).

[5] = test system: LNCaP prostate cancer cells; assay: Primary tumour growth of LNCaP cells in nude mice (luciferase imaging); type: in vivo; details: 3×i.v. doses of 0.2 mg/kg, when tumour specific growth rate was less than 2%/day
Protocol: Nude mice were injected with 1.5×10^6 LNCaP prostate cancer cells stably expressing an exogenous luciferase reporter gene and imaged over a period of 56 days. Tumour growth was measured by injecting mice with […] (a luminescent substrate for luciferase) and the resulting light emissions were quantified using a xenogen in vivo imaging system.

[6] = target: T3, bovine thrombin (Bos taurus, UniProt P00735); assay: Inhibitor kinetics: thrombin amidolytic activity; type: biochemical; details: substrate Bz-FVR-pNA (0.2 mM)
T3 construct: purchased Sigma Chemicals
Protocol: as §2

[7] = target: KLK5 (Homo sapiens, UniProt Q9Y337); assay: Inhibitor kinetics: KLK5 amidolytic activity; type: biochemical; details: substrate Bz-PFR-pNA (0.2 mM)
[8] = target: T4, human matriptase (Homo sapiens, UniProt Q9Y5Y6); assay: Inhibitor kinetics: matriptase amidolytic activity; type: biochemical; details: substrate Bz-FVR-pNA (0.2 mM)
T4 construct: purchased R&D Systems
T4 sequence (Q9Y5Y6 615-855 limits assumed): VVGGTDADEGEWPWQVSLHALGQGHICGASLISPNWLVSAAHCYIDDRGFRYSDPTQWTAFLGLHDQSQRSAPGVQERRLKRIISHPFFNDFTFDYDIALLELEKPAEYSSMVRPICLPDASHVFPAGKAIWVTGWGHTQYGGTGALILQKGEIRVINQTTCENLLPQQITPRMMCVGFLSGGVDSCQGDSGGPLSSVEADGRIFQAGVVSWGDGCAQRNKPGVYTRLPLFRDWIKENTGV
Protocol: as §2

[9] = target: KLK12 (Homo sapiens, UniProt Q9UKR0); assay: Protein proteolysis: fibrinogen digestion by KLK12; type: biochemical; details: up to a concentration of 2 μM
[10] = target: T5, bovine α-chymotrypsin (Bos taurus, UniProt P00766); assay: Inhibitor kinetics: α-chymotrypsin amidolytic activity; type: biochemical; details: substrate W-pNA (0.2 mM)
T5 construct: purchased Sigma Chemicals
Protocol: as §2

[11] = test system: bovine β trypsin; assay: Trypsin stimulated calcium release in LMF stably expressing human PAR-2; type: cell-based; details: 1 μM SFTI-FCQR, trypsin 10 nM
Protocol: as §1

Chain of KLK12 (Q9UKR0 18-248): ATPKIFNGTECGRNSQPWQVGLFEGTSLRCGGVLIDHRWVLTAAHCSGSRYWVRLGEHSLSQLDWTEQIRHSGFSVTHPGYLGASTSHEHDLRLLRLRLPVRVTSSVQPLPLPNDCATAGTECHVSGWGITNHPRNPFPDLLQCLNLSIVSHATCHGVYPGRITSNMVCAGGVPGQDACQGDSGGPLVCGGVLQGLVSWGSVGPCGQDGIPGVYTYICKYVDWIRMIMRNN
T1 sequence (Q9P0G3 41-267): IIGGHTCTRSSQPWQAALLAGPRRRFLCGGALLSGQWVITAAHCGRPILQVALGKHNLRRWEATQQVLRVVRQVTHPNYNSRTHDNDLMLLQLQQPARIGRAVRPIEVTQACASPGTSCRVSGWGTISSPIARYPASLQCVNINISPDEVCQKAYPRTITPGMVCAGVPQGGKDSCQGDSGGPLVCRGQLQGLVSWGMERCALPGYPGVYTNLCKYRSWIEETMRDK
Chain of KLK4 (Q9Y5K2 31-254): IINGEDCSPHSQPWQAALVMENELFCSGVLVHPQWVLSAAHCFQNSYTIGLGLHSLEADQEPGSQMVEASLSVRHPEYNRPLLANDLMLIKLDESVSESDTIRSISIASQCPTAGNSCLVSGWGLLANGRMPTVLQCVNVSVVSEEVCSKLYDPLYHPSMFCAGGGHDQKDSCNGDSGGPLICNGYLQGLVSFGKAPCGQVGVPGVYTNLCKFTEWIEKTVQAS
Chain of KLK5 (Q9Y337 23-293): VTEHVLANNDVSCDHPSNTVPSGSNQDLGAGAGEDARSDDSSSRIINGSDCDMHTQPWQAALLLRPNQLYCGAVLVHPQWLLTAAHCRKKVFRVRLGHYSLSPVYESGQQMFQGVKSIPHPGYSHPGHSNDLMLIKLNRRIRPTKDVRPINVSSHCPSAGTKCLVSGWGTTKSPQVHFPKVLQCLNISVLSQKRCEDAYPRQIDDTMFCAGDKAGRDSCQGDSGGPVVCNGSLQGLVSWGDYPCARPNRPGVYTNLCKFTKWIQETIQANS

SMILES: CC[C@H](C)[C@@H]1NC(=O)[C@@H]2CCCN2C(=O)[C@@H]2CCCN2C(=O)[C@H]([C@@H](C)CC)NC(=O)[C@H](CO)NC(=O)[C@H](CCCNC(=N)N)NC(=O)[C@H](CCC(N)=O)NC(=O)[C@@H]2CSSC[C@H](NC1=O)C(=O)N[C@@H](Cc1ccccc1)C(=O)N1CCC[C@H]1C(=O)N[C@@H](CC(=O)O)C(=O)NCC(=O)N[C@@H](Cc1ccccc1)C(=O)N2 [SFTI-FCQR] (cyclo(GFCQRSIPPICFPD); disulfide 3-11)
- effect on calcium release by PAR-2 activating peptide ([1]; 1 μM SFTI-FCQR, PAR-2 activating peptide 100 nM): permissive for calcium release; also recorded: no effect
- effect on intracellular Ca^2+ of inhibitor alone ([1]; SFTI-FCQR 1 μM without agonist): no effect
- IC50 [2]: 1.51 ± 0.0371 µM
- concentration giving complete inhibition of fibrinogen proteolysis by KLK4 [3]: 250 nM
- IC50 [4]: 4.06 ± 1.09 µM
- tumour growth rate in comparison to control [5]: arrested tumour growth rate
- IC50 [6]: did not inhibit
- IC50 ([6]; read-out: IC50): > 10 µM
- IC50 [7]: 2.35 ± 0.721 µM
- IC50 [8]: did not inhibit
- IC50 ([8]; read-out: IC50): > 10 µM
- inhibition of KLK12 digestion of fibrinogen [9]: no inhibition
- IC50 [10]: did not inhibit
- IC50 ([10]; read-out: IC50): > 10 µM
- effect on trypsin stimulated calcium release [11]: permissive for calcium release; also recorded: no effect; also recorded: increased intracellular Ca^2+ ion concentration
